Measurements published in ChEMBL document CHEMBL3879911, “Heteroaryl compounds useful as inhibitors of E1 activating enzymes” (2008).

Target: T1, NEDD8 activating enzyme (Homo sapiens, UniProt Q8TBC4)
T1 sequence (Q8TBC4 whole entry): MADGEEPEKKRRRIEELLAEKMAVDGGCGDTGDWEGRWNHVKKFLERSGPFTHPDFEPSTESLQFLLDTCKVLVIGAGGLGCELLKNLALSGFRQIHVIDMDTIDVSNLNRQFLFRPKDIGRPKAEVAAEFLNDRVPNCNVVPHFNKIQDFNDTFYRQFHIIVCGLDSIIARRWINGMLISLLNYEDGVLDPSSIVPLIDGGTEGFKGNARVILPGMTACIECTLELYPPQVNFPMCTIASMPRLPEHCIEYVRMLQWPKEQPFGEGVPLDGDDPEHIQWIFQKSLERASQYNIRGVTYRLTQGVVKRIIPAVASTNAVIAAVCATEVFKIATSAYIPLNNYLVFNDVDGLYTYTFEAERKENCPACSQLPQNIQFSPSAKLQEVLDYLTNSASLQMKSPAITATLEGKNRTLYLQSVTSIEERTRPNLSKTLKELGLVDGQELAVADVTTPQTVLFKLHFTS
T1 sequence (Q13564 whole entry): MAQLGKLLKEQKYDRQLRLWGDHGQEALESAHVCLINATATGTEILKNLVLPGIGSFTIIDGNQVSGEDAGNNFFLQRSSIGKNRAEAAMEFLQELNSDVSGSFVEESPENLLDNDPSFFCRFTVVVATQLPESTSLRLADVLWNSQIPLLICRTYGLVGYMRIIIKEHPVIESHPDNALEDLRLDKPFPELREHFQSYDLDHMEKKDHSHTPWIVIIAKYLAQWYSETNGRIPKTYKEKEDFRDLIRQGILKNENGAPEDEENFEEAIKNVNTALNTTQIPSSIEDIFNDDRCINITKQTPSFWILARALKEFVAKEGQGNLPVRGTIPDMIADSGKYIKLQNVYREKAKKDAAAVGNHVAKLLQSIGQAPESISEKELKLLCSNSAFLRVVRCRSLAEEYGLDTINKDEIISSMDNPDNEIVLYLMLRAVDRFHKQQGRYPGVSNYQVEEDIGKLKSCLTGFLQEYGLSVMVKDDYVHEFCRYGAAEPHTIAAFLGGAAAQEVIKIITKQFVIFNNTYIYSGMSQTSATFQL
Experiment: Inhibition of recombinant human NAEalpha/N-terminal His-tagged NAEbeta expressed in baculovirus infected insect Sf9 cells using N-terminal FLAG tagged Nedd8 as substrate incubated for 105 mins in presence of N-terminal GST-tagged Ubc12 by FRET assay

IC50 [nM]	Structure (SMILES)
500 to 10000	NS(=O)(=O)OC[C@@H]1C[C@@H](Oc2cc(OCc3ccc4ccccc4c3)ncn2)C[C@@H]1O
≤ 500	NS(=O)(=O)OC[C@@H]1C[C@@H](Nc2ncnc(N[C@H]3CCc4ccccc43)n2)C[C@@H]1O
500 to 10000	NS(=O)(=O)OC[C@H]1CC[C@H](Oc2ncnc3[nH]c(-c4cccc5ccccc45)nc23)C1
≤ 500	NS(=O)(=O)OC[C@@H]1C[C@@H](Nc2ncnc3[nH]c(-c4ccccc4Cl)nc23)C[C@@H]1O
500 to 10000	NS(=O)(=O)OC[C@@H]1C[C@@H](Nc2ncnc3[nH]c(-c4ccccc4-c4ccccc4)nc23)C[C@@H]1O
≤ 500	Cc1cccc(Sc2nc3ncnc(O[C@@H]4C[C@@H](COS(N)(=O)=O)[C@@H](O)C4)c3[nH]2)c1
≤ 500	NS(=O)(=O)OC[C@@H]1C[C@@H](Oc2ncnc3nc(-c4ccc(N5CCCC5)c5ccccc45)[nH]c23)C[C@@H]1O
≤ 500	NS(=O)(=O)OC[C@@H]1C[C@@H](Oc2cc(N[C@H]3CCCc4ccccc43)ncn2)C[C@@H]1O
≤ 500	NS(=O)(=O)OC[C@H]1C[C@@H](Nc2cc(N[C@H]3CCCc4ccccc43)ncn2)[C@H](O)[C@@H]1O
500 to 10000	NS(=O)(=O)OC[C@H]1C[C@@H](Nc2cc(CCc3ccccc3)ncn2)[C@H](O)[C@@H]1O
≤ 500	NS(=O)(=O)OC[C@H]1C[C@@H](Nc2cc(N[C@H]3CCc4ccccc43)ncn2)C[C@@H]1O
≤ 500	NS(=O)(=O)OC[C@@H]1C[C@@H](Nc2ncnc3[nH]c(-c4ccccc4)cc23)C[C@@H]1O
≤ 500	Cc1ccccc1-c1nc2c(N[C@@H]3C[C@@H](COS(N)(=O)=O)[C@@H](O)C3)ncnc2[nH]1
≤ 500	NS(=O)(=O)OC[C@H]1C[C@@H](Nc2cc(N[C@H]3CCc4cc(Cl)ccc43)ncn2)[C@H](O)[C@@H]1O
≤ 500	CO[C@H]1Cc2ccccc2[C@H]1Nc1ncnc(N[C@@H]2C[C@H](COS(N)(=O)=O)[C@@H](O)[C@H]2O)n1
≤ 500	NS(=O)(=O)OC[C@@H]1C[C@@H](Nc2ncnc3[nH]c(-c4ccc(Cl)cc4)nc23)C[C@@H]1O
≤ 500	NS(=O)(=O)OC[C@@H]1C[C@@H](Nc2ncnc3oc(-c4ccccc4)nc23)C[C@@H]1O
500 to 10000	NS(=O)(=O)OC[C@@H]1C[C@@H](Oc2cc(N3Cc4ccccc4C3)ncn2)C[C@@H]1O
≤ 500	CC1CC(Nc2nccc(N[C@@H]3C[C@H](COS(N)(=O)=O)[C@@H](O)[C@H]3O)n2)c2ccccc21 (some centres not stated)

IC50 [nM]	Structure (SMILES)
500 to 10000	NS(=O)(=O)OC[C@@H]1C[C@@H](Nc2cc(N[C@H]3CCc4ccccc43)nc(=O)[nH]2)C[C@@H]1O
500 to 10000	CO[C@H]1Cc2ccccc2[C@H]1Oc1cc(O[C@@H]2C[C@@H](COS(N)(=O)=O)[C@@H](O)C2)ncn1
≤ 500	NS(=O)(=O)OC[C@H]1C[C@@H](Nc2cc(N[C@H]3CCc4c(F)cccc43)ncn2)[C@H](O)[C@@H]1O
≤ 500	NS(=O)(=O)OC[C@@H]1C[C@@H](Oc2ncnc3nc(-c4ccnc5cc(Cl)ccc45)[nH]c23)C[C@@H]1O
≤ 500	NS(=O)(=O)OC[C@@H]1C[C@@H](Oc2ncnc3nc(-c4cncc5ccccc45)[nH]c23)C[C@@H]1O
500 to 10000	NS(=O)(=O)OC[C@H]1C[C@@H](Nc2ccnc(NCC3CCCCC3)n2)[C@H](O)[C@@H]1O
≤ 500	NS(=O)(=O)OC[C@@H]1C[C@@H](Oc2ncnc3[nH]c(-c4ccccc4)nc23)C[C@@H]1O
500 to 10000	CN(c1ncnc2c1nc(-c1ccccc1)n2C)[C@@H]1C[C@@H](COS(N)(=O)=O)[C@@H](O)C1
≤ 500	NS(=O)(=O)OC[C@@H]1C[C@@H](N2CCc3c(N[C@H]4CCc5ccccc54)ncnc32)C[C@@H]1O
500 to 10000	Cn1c(-c2ccccc2)nc2ncnc(N[C@@H]3C[C@@H](COS(N)(=O)=O)[C@@H](O)C3)c21
500 to 10000	OC[C@@H]1C[C@@H](Nc2ncnc3[nH]c(-c4cccc5c4OCCO5)nc23)C[C@@H]1O
≤ 500	CC1(C)C[C@H](Nc2cc(N[C@@H]3C[C@H](COS(N)(=O)=O)[C@@H](O)[C@H]3O)ncn2)c2ccccc21
≤ 500	NS(=O)(=O)OC[C@@H]1C[C@@H](Nc2ncnc3[nH]c(-c4cccc5c4CCCC5)nc23)C[C@@H]1O
≤ 500	Cn1c(-c2ccccc2)nc2c(N[C@@H]3C[C@@H](COS(N)(=O)=O)[C@@H](O)C3)ncnc21
≤ 500	CO[C@H]1Cc2ccccc2[C@H]1Nc1ncnc(O[C@@H]2C[C@@H](COS(N)(=O)=O)[C@@H](O)C2)c1F
≤ 500	NS(=O)(=O)OC[C@@H]1C[C@@H](Nc2ncnc3nc(-c4cccc5cccnc45)[nH]c23)C[C@@H]1O
≤ 500	NS(=O)(=O)OC[C@@H]1C[C@@H](Nc2ncnc3[nH]c(-c4cccc5ccccc45)cc23)C[C@@H]1O
≤ 500	C[C@H]1Cc2ccccc2[C@H]1Nc1cc(O[C@@H]2C[C@@H](COS(N)(=O)=O)[C@@H](O)C2)ncn1
> 10000	NS(=O)(=O)OC[C@@H]1C[C@@H](Oc2cc(OCc3ccc(Cl)cc3)ncn2)C[C@@H]1O

IC50 [nM]	Structure (SMILES)
≤ 500	NS(=O)(=O)OC[C@@H]1C[C@@H](Nc2ncnc3[nH]c(-c4ccccc4)nc23)C[C@@H]1O
500 to 10000	NS(=O)(=O)OC[C@H]1C[C@@H](NC(=O)c2cccnc2)[C@H](O)[C@@H]1O
> 10000	Cc1nc(N)cc(N[C@@H]2C[C@H](COS(N)(=O)=O)[C@@H](O)[C@H]2O)n1
≤ 500	NS(=O)(=O)OC[C@H]1C[C@@H](Nc2cc(Nc3cccc4c3CCCC4)ncn2)[C@H](O)[C@@H]1O
500 to 10000	CO[C@@H]1Cc2ccccc2[C@@H]1Oc1cc(O[C@@H]2C[C@@H](COS(N)(=O)=O)[C@@H](O)C2)ncn1
≤ 500	NS(=O)(=O)OC[C@H]1C[C@@H](Nc2ncnc(N[C@@H]3CCc4ccccc43)n2)[C@H](O)[C@@H]1O
500 to 10000	NS(=O)(=O)OC[C@H]1C[C@@H](Nc2cc(N[C@H]3CCC[C@@H]3OCc3ccccc3)ncn2)[C@H](O)[C@@H]1O
≤ 500	CC(C)(C)c1nc2c(N[C@@H]3C[C@@H](COS(N)(=O)=O)[C@@H](O)C3)ncnc2[nH]1
≤ 500	COc1cccc(-c2nc3c(N[C@@H]4C[C@@H](COS(N)(=O)=O)[C@@H](O)C4)ncnc3[nH]2)c1
≤ 500	CC1(C)C[C@H](Nc2cc(O[C@@H]3C[C@@H](COS(N)(=O)=O)[C@@H](O)C3)ncn2)c2ccccc21
500 to 10000	CN(C)C(=O)[C@H]1Cc2ccccc2[C@H]1Nc1cc(O[C@@H]2C[C@@H](COS(N)(=O)=O)[C@@H](O)C2)ncn1
500 to 10000	CO[C@H]1c2ccccc2C[C@H]1Oc1cc(O[C@@H]2C[C@@H](COS(N)(=O)=O)[C@@H](O)C2)ncn1
≤ 500	CN(c1cc(N[C@H]2CCc3ccccc32)ncn1)[C@@H]1C[C@H](COS(N)(=O)=O)[C@@H](O)[C@H]1O
> 10000	CN(Cc1ccccc1)c1nccc(N[C@@H]2C[C@H](COS(N)(=O)=O)[C@@H](O)[C@H]2O)n1
≤ 500	CN(C)c1ccc(-c2nc3c(N[C@@H]4C[C@@H](COS(N)(=O)=O)[C@@H](O)C4)ncnc3[nH]2)c2ccccc12
500 to 10000	CO[C@@H]1c2ccccc2C[C@@H]1Oc1cc(O[C@@H]2C[C@@H](COS(N)(=O)=O)[C@@H](O)C2)ncn1
≤ 500	Cc1nc(N[C@H]2CCc3ccccc32)nc(N[C@@H]2C[C@H](COS(N)(=O)=O)[C@@H](O)[C@H]2O)n1
≤ 500	NS(=O)(=O)OC[C@@H]1C[C@@H](Nc2ncnc3[nH]c(-c4ccccc4C(F)(F)F)nc23)C[C@@H]1O
≤ 500	CC1(C)C[C@H](Nc2ncnc(N[C@@H]3C[C@@H](COS(N)(=O)=O)[C@@H](O)C3)n2)c2ccccc21
